Experiments:
Carrageenin Edema = Carrageenin Edema Method (anti-inflammatory action); format: in vivo, Donryu-strain male rats; conditions: carrageenin paw edema, rats, 2 hours after phlogogen
Method: i. Carrageenin Edema Method
According to the method of Winter et al. (Proc. Soc. Exptl. Biol. Med., 111, 544 (1962)), to one group of five Donryu-strain male rats each weighing about 130 g a test solution containing a test compound was administered orally. One hour later 0.05 ml of 1% carrageenin solution as a phlogogenic substance was subcutaneously injected to the paw of the hind leg. And 2 hours after the administration of phlogogen the bulk of the paw was measured in order to obtain the increment percentage over that before administration. The ratio of bulk increment between a control group and a test group was calculated as inhibition percentage.

[1] = system: stretch symptoms induced by o-phenyl-p-benzoquinone; test: Phenylquinone Method (analgesic action); format: in vivo, dd-strain male mice; conditions: mice, stretch symptoms over 30 minutes
Method: Analgesic Action (Phenylquinone Method)
According to the method of Hendershot et al. (J. Pharmacol. Exptl. Therap., 125, 237 (1957)), to one group of six dd-strain male mice each weighing about 20 g a test solution containing a test compound was orally administered and 1 hour later 0.2 ml/20 g of body weight of 0.02% o-phenyl-p-benzoquinone solution was intraperitoneally injected. The frequency of stretch symptoms thus induced was measured for 30 minutes, and compared with that of a control group, and the inhibition percentage (effect) was calculated. Results: Carrageenin Edema Method Compound Dose (mg/kg) p.o. % inhibition ______________________________________ A 5 50 25 68 B 10 36 25 61 C 25 32 50 63 ______________________________________

Ultraviolet Erythema = Ultraviolet Erythema Method (anti-inflammatory action); format: in vivo; conditions: guinea pigs, 2 hours after irradiation, half dose 1 hour before and after
Method: ii. Ultraviolet Erythema Method
Using guinea pigs weighing 250-450 g, a rubber plate with 3 holes of 7 mm in diameter was fitted to the abdomen, hair of which had been removed in advance, and light was given by a mercury lamp (300 W) at the distance of 15 cm for 150 seconds. Two hours later the degree of erythema formation was marked according to the method of Winder et al. (Arch. Intern. Pharmacodyn., 116, 261 (1958)) and the efficacy rate was calculated, based on the criterion that 1.5 or less of total marks be effective. Half amount of the test solution was orally given 1 hour before and after the irradiation.

SMILES	% inhibition (Carrageenin Edema; 5 mg/kg p.o.) [%]	% inhibition (Carrageenin Edema; 25 mg/kg p.o.) [%]	% inhibition ([1]; 5 mg/kg p.o.) [%]	% inhibition ([1]; 10 mg/kg p.o.) [%]	Animals with score of 1.5 or less / Total animals (Ultraviolet Erythema; 1 mg/kg p.o.)	Animals with score of 1.5 or less / Total animals (Ultraviolet Erythema; 2.5 mg/kg p.o.)	% inhibition (Carrageenin Edema; 50 mg/kg p.o.) [%]	% inhibition ([1]; 25 mg/kg p.o.) [%]	% inhibition ([1]; 50 mg/kg p.o.) [%]	Animals with score of 1.5 or less / Total animals (Ultraviolet Erythema; 5 mg/kg p.o.)	% inhibition (Carrageenin Edema; 10 mg/kg p.o.) [%]	% inhibition ([1]; 0.5 mg/kg p.o.) [%]	% inhibition ([1]; 1 mg/kg p.o.) [%]	Animals with score of 1.5 or less / Total animals (Ultraviolet Erythema; 100 mg/kg p.o.)	Animals with score of 1.5 or less / Total animals (Ultraviolet Erythema; 250 mg/kg p.o.)
CC(=O)C(C)c1ccc2c(c1)Cc1cccnc1O2 (stereo not drawn) [A, 3-(5h-[1]benzopyrano[2,3-b]pyridin-7-yl)-2-butanone]	50	68	48.7	73.5	3/10	6/10									
CCC(=O)C(C)c1ccc2c(c1)Cc1cccnc1O2 (stereo not drawn) [C, 2-(5h-[1]benzopyrano[2,3-b]pyridin-7-yl)-3-pentanone]		32			2/5		63	41.6	75.2	3/5					
CC(=O)C(C)c1ccc2c(c1)Cc1ccc(C)nc1O2 (stereo not drawn) [B, 3-(2-methyl-5H-[1]benzopyrano[2,3-b]pyridin-7-yl)-2-butanone]		61									36	24.0	63.4	2/5	4/5

From patent US3974168A, “Tricycle substituted acetones” (Yoshitomi Pharmaceutical Industries, Ltd., priority 1973, dated 1976)
